Here are results for one compound from US20040152722A1 (priority 2001, published 2004).

Experiment [1] relates to Rigidity Model of Mouse Induced By Haloperidol. The following applies: in vivo, po.
For experiment [2], the system named is Tremor Model of Mice Induced by Agonist of Cholinergic M-Receptor: Arecaline. The following applies: mouse, in vivo, po.

With `OC(CCN1CCCCC1)(c1ccccc1)C1CCCCC1` (centres unmarked) [Benzhexol], the “ED50 + L95” value in experiment [1] came out at 19.56 ± 1.44 mg/kg; in experiment [2], 8.82 ± 0.83 mg/kg.
